The record followed here is patent US11866431B2, “Bicyclic compounds” (Vivace Therapeutics, Inc., priority 2018, dated 2024).

The structures appear in SMILES notation. A value given as a limit tells only on which side of the number the result lay.

In one experiment the test system is 8XTBD luciferase reporter (YAP reporter) in HEK293T cells. The experiment is described as follows: YAP Reporter Assay. It counts as cell-based. The settings on record: Homo sapiens, HEK-293T, 24 h, read-out: Firefly Luciferase IC50 (μM). Put shortly:
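Dual-luciferase read-out after 24 h compound exposure at 37° C, 5% CO2; IC50 and maximum inhibition given separately for 8XTBD-firefly and TK-renilla signals. Stable HEK293T reporter cells, 3×10^3/well, received 10-point 1:3 series starting 3 μM final, in quadruplicate.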
On to `C[C@H](NC(=O)c1ccc2c(-c3ccc(C(F)(F)F)cc3)cccc2c1)C1CN(CCO)C1` [Compound 140, N-[(1S)-1-[1-(2-hydroxyethyl)azetidin-3-yl]ethyl]-5-[4-(trifluoromethyl)phenyl]naphthalene-2-carboxamide], for which the concentration for half-maximal inhibition (IC50) was in the range of 0.1 to 1 µM.

The experiment is the same for the next values; noted with them: Homo sapiens, HEK-293T; HEK293T cells stably transfected with 8XTBD luciferase reporter and pRLTK; 24-hr incubation; top concentration 3 μM; read-out: Firefly Luciferase IC50.
With `COc1cc(-c2ccc(C(F)(F)F)cc2)c2ncc(C(=O)N[C@H](C)CO)cc2c1` [Compound 98, N-[(1R)-2-hydroxy-1-methyl-ethyl]-6-methoxy-8-[4-(trifluoromethyl)phenyl]quinoline-3-carboxamide], the IC50 was less than 0.1 µM.
In the case of `C[C@H](CO)NC(=O)c1cnc2c(-c3ccc(C(F)(F)F)cc3)cccc2c1` [Compound 99, (R)—N-(1-hydroxypropan-2-yl)-8-(4-(trifluoromethyl)phenyl)quinoline-3-carboxamide], the IC50 was less than 0.1 µM.
The same measure, in the same setting: as for `COC[C@@H](C)NC(=O)c1cnc2c(-c3ccc(C(F)(F)F)cc3)cccc2c1` [Compound 100, (R)—N-(1-methoxypropan-2-yl)-8-(4-(trifluoromethyl)phenyl)quinoline-3-carboxamide], the figure is 0.1 to 1 µM; as for `C[C@@H](NC(=O)c1cnc2c(-c3ccc(C(F)(F)F)cc3)cccc2c1)c1ccccn1` [Compound 101, (R)—N-(1-(pyridin-2-yl)ethyl)-8-(4-(trifluoromethyl)phenyl)quinoline-3-carboxamide], 0.1 to 1 µM.
With `COC[C@H](C)NC(=O)c1cnc2c(-c3ccc(C(F)(F)F)cc3)cccc2c1` [Compound 102, (S)—N-(1-methoxypropan-2-yl)-8-(4-(trifluoromethyl)phenyl)quinoline-3-carboxamide], the IC50 was less than 0.1 µM.
Same read-out and setting: to `C[C@H](NC(=O)c1cnc2c(-c3ccc(C(F)(F)F)cc3)cccc2c1)c1ccccn1` [Compound 103, (S)—N-(1-(pyridin-2-yl)ethyl)-8-(4-(trifluoromethyl)phenyl)quinoline-3-carboxamide] belongs less than 0.1 µM.
On the same count and under the same terms, to `CC(C)NC(=O)c1cnc2c(-c3ccc(C(F)(F)F)cc3)cc(OC(F)(F)F)cc2c1` [Compound 104, N-isopropyl-6-(trifluoromethoxy)-8-[4-(trifluoromethyl)phenyl]quinoline-3-carboxamide] belongs less than 0.1 µM; to `COc1cc(-c2ccc(C(F)(F)F)cc2)c2ncc(C(=O)NC(CO)c3ccccn3)cc2c1` (stereo not drawn) [Compound 105, N-[2-hydroxy-1-(2-pyridyl)ethyl]-6-methoxy-8-[4-(trifluoromethyl)phenyl]quinoline-3-carboxamide], less than 0.1 µM; to `COc1cc(-c2ccc(C(F)(F)F)cc2)c2ncc(C(=O)N[C@H](C)c3ccccn3)cc2c1` [Compound 106, 6-methoxy-N-[(1R)-1-(2-pyridyl)ethyl]-8-[4-(trifluoromethyl)phenyl]quinoline-3-carboxamide], 0.1 to 1 µM.
On the same count and under the same terms, to `COC[C@@H](C)NC(=O)c1cnc2c(-c3ccc(C(F)(F)F)cc3)cc(OC)cc2c1` [Compound 107, 6-methoxy-N-[(1R)-2-methoxy-1-methyl-ethyl]-8-[4-(trifluoromethyl)phenyl]quinoline-3-carboxamide] belongs less than 0.1 µM; to `COc1cc(-c2ccc(C(F)(F)F)cc2)c2ncc(C(=O)N[C@@H](C)c3ccccn3)cc2c1` [Compound 108, 6-methoxy-N-[(1S)-1-(2-pyridyl)ethyl]-8-[4-(trifluoromethyl)phenyl]quinoline-3-carboxamide], less than 0.1 µM.
As for `COC[C@H](C)NC(=O)c1cnc2c(-c3ccc(C(F)(F)F)cc3)cc(OC)cc2c1` [Compound 109, 6-methoxy-N-[(1S)-2-methoxy-1-methyl-ethyl]-8-[4-(trifluoromethyl)phenyl]quinoline-3-carboxamide], the IC50 was less than 0.1 µM.
`O=C(NC(CO)c1ccccn1)c1ccc2c(-c3ccc(C(F)(F)F)cc3)cccc2c1` (stereo not drawn) [Compound 110, N-(2-hydroxy-1-(pyridin-2-yl)ethyl)-5-(4-(trifluoromethyl)phenyl)-2-naphthamide]: the IC50 is less than 0.1 µM.
Consider `C#CCNC(=O)c1ccc2c(-c3ccc(C(F)(F)F)cc3)cccc2c1` [Compound 111, N-(prop-2-yn-1-yl)-5-(4-(trifluoromethyl)phenyl)-2-naphthamide], for which the IC50 was less than 0.1 µM.
For the compound `C#CCCNC(=O)c1ccc2c(-c3ccc(C(F)(F)F)cc3)cccc2c1` [Compound 112, N-(but-3-yn-1-yl)-5-(4-(trifluoromethyl)phenyl)-2-naphthamide], the IC50 is less than 0.1 µM.
On the same count and under the same terms, to `N#CCNC(=O)c1ccc2c(-c3ccc(C(F)(F)F)cc3)cccc2c1` [Compound 113, N-(cyanomethyl)-5-(4-(trifluoromethyl)phenyl)-2-naphthamide] belongs less than 0.1 µM.
On the same count and under the same terms, as for `N#CCCNC(=O)c1ccc2c(-c3ccc(C(F)(F)F)cc3)cccc2c1` [Compound 114, N-(2-cyanoethyl)-5-(4-(trifluoromethyl)phenyl)-2-naphthamide], the figure is less than 0.1 µM; as for `O=C(NCCSSCCNC(=O)c1ccc2c(-c3ccc(C(F)(F)F)cc3)cccc2c1)c1ccc2c(-c3ccc(C(F)(F)F)cc3)cccc2c1` [Compound 115, N,N′-(disulfanediylbis(ethane-2,1-diyl))bis(5-(4-(trifluoromethyl)phenyl)-2-naphthamide)], 1 to 3 µM; as for `CC(C)NC(=O)c1cnc2c(-c3ccc(C(F)(F)F)cc3)cc(OC3CC3)cc2c1` [Compound 116, 6-cyclopropoxy-N-isopropyl-8-(4-(trifluoromethyl)phenyl)quinoline-3-carboxamide], less than 0.1 µM.
Still for that read-out and setting: as for `O=C(NC1(c2ccccc2)CC1)c1ccc2c(-c3ccc(C(F)(F)F)cc3)cccc2c1` [Compound 121, N-(1-phenylcyclopropyl)-5-[4-(trifluoromethyl)phenyl]naphthalene-2-carboxamide], the figure is less than 0.1 µM; as for `CS(=O)(=O)NC(=O)c1cnc2c(-c3ccc(C(F)(F)F)cc3)cc(OC3CC3)cc2c1` [Compound 122, 6-cyclopropoxy-N-(methylsulfonyl)-8-(4-(trifluoromethyl)phenyl)quinoline-3-carboxamide], 0.1 to 1 µM.
Consider `CS(=O)(=O)NC(=O)c1cnc2c(-c3ccc(C(F)(F)F)cc3)cc(OC(F)(F)F)cc2c1` [Compound 123, N-(methylsulfonyl)-6-(trifluoromethoxy)-8-(4-(trifluoromethyl)phenyl)quinoline-3-carboxamide], for which the IC50 lay within 1 to 3 µM.
Regarding `CNCCNC(=O)c1ccc2c(-c3ccc(C(F)(F)F)cc3)cccc2c1` [Compound 124, N-(2-(methylamino)ethyl)-5-(4-(trifluoromethyl)phenyl)-2-naphthamide], the IC50 was 0.1 to 1 µM.
Same read-out and setting: to `CN(C#N)CCNC(=O)c1ccc2c(-c3ccc(C(F)(F)F)cc3)cccc2c1` [Compound 125, N-(2-(N-methylcyanamido)ethyl)-5-(4-(trifluoromethyl)phenyl)-2-naphthamide] belongs less than 0.1 µM.
On to `CNCCCNC(=O)c1ccc2c(-c3ccc(C(F)(F)F)cc3)cccc2c1` [Compound 126, N-(3-(methylamino)propyl)-5-(4-(trifluoromethyl)phenyl)-2-naphthamide], for which the IC50 lay within 0.1 to 1 µM.
Same read-out and setting: as for `CN(C#N)CCCNC(=O)c1ccc2c(-c3ccc(C(F)(F)F)cc3)cccc2c1` [Compound 127, N-(3-(N-methylcyanamido)propyl)-5-(4-(trifluoromethyl)phenyl)-2-naphthamide], the figure is 0.1 to 1 µM; as for `C[C@H](NC(=O)c1ccc2c(-c3ccc(C(F)(F)F)cc3)cccc2c1)c1cccc(N)n1` [Compound 128, (S)—N-(1-(6-aminopyridin-2-yl)ethyl)-5-(4-(trifluoromethyl)phenyl)-2-naphthamide], 0.1 to 1 µM.
Same read-out and setting: to `C[C@@H](NC(=O)c1ccc2c(-c3ccc(C(F)(F)F)cc3)cccc2c1)c1cccc(N)n1` [Compound 129, (R)—N-(1-(6-aminopyridin-2-yl)ethyl)-5-(4-(trifluoromethyl)phenyl)-2-naphthamide] belongs less than 0.1 µM.
Still for that read-out and setting: as for `O=C(N[C@H](CO)C1CNC1)c1ccc2c(-c3ccc(C(F)(F)F)cc3)cccc2c1` [Compound 130, N-[(1S)-1-(azetidin-3-yl)-2-hydroxy-ethyl]-5-[4-(trifluoromethyl)phenyl]naphthalene-2-carboxamide], the figure is 1 to 3 µM.
With `C[C@@H](NC(=O)c1ccc2c(-c3ccc(C(F)(F)F)cc3)cccc2c1)C1CN(CCO)C1` [Compound 133, (R)—N-(1-(1-(2-hydroxyethyl)azetidin-3-yl)ethyl)-5-(4-(trifluoromethyl)phenyl)-2-naphthamide], the IC50 fell in the range of 0.1 to 1 µM.
As for `C[C@@H](NC(=O)c1ccc2c(-c3ccc(C(F)(F)F)cc3)cccc2c1)C1CN(CC(F)F)C1` [Compound 137, (R)—N-(1-(1-(2,2-difluoroethyl)azetidin-3-yl)ethyl)-5-(4-(trifluoromethyl)phenyl)-2-naphthamide], the IC50 was 0.1 to 1 µM.
The same measure, in the same setting: as for `C[C@@H](NC(=O)c1cnc2c(-c3ccc(C(F)(F)F)cc3)cccc2c1)C1(O)CNC1` [Compound 141, (R)—N-(1-(3-hydroxyazetidin-3-yl)ethyl)-8-(4-(trifluoromethyl)phenyl)quinoline-3-carboxamide], the figure is 1 to 3 µM; as for `CC(C)N1CC([C@H](C)NC(=O)c2ccc3c(-c4ccc(C(F)(F)F)cc4)cccc3c2)C1` [Compound 143, N-[(1S)-1-(1-isopropylazetidin-3-yl)ethyl]-5-[4-(trifluoromethyl)phenyl]naphthalene-2-carboxamide], 1 to 3 µM; as for `C[C@@H](NC(=O)c1ccc2c(-c3ccc(C(F)(F)F)cc3)cccc2c1)C1CN(CCF)C1` [Compound 144, (R)—N-(1-(1-(2-fluoroethyl)azetidin-3-yl)ethyl)-5-(4-(trifluoromethyl)phenyl)-2-naphthamide], 0.1 to 1 µM.
For the compound `CCN1CC([C@@H](C)NC(=O)c2ccc3c(-c4ccc(C(F)(F)F)cc4)cccc3c2)C1` [Compound 148, N-[(1R)-1-(1-Ethylazetidin-3-yl)ethyl]-5-[4-(trifluoromethyl)phenyl]naphthalene-2-carboxamide], the IC50 was in the range of 0.1 to 1 µM.

As a reminder, the IC50 is the concentration at which inhibition is half-maximal.
